In the OPERA property sets (Mansouri et al. 2018) one finds logP data, which are given here for 30 compounds.

As a reminder, the logP is the decadic logarithm of the partition coefficient of the neutral form, usually between octanol and water. A low value points to lower lipophilicity.

`CC(=O)c1cccc(NC(=O)Cc2ccccc2)c1` displayed a logP of 2.62.
With `O=C(Cc1ccccc1)Nc1cccc([N+](=O)[O-])c1`, the logP is 2.93.
Regarding `O=C(Cc1ccccc1)Nc1ccc(F)cc1`, the logP came to 2.86.
The result for `CCNc1cccc(NC(=O)Cc2ccccc2)c1` reads 2.59; that for `CC(=O)c1ccc(NC(=O)Cc2ccccc2)cc1`, 2.75.
The value for `O=C(Cc1ccccc1)Nc1ccccc1[N+](=O)[O-]` was 2.73; that for `COc1ccccc1NC(=O)Cc1ccccc1` was 2.68; that for `Nc1cccc(NC(=O)Cc2ccccc2)c1` was 1.59.
On to `O=C(Cc1ccccc1)Nc1cccc(Br)c1`, for which the logP was determined as 3.77.
The value for `O=C(Cc1ccccc1)Nc1ccc(O)cc1` was 1.82.
The result for `N#Cc1cccc(NC(=O)Cc2ccccc2)c1` reads 2.75; that for `CS(=O)(=O)Oc1cccc(NC(=O)Cc2ccccc2)c1`, 2.32.
The result for `O=C(Cc1ccccc1)Nc1ccccc1F` reads 2.62.
Compound `O=C(Cc1ccccc1)Nc1cccc(F)c1` registered a logP of 3.1.
The result for `O=C(Cc1ccccc1)Nc1ccc(Cl)cc1` reads 3.54; that for `CCc1cccc(N(C(C)=O)c2ccccc2)c1`, 3.47.
The value for `O=C(Cc1ccccc1)Nc1ccc([N+](=O)[O-])cc1` was 3.18; that for `COc1ccc(NC(=O)Cc2ccccc2)cc1` was 2.49.
The value for `O=C(Cc1ccccc1)Nc1cccc(I)c1` was 3.91.
In the case of `CC(=O)Oc1cccc(NC(=O)Cc2ccccc2)c1`, the logP was determined as 2.37.
The value for `Nc1ccccc1NC(=O)Cc1ccccc1` was 1.45.
Regarding `O=C(Cc1ccccc1)Nc1cccc(O)c1`, the logP turned out to be 2.22.
The result for `O=C(Cc1ccccc1)Nc1ccc(Br)cc1` reads 3.7; that for `O=C(Cc1ccccc1)Nc1ccccc1`, 2.7.
The result for `CC(=O)N(c1ccccc1)c1ccc(C)cc1` reads 3.05.
`O=C(Cc1ccccc1)Nc1ccccc1O` registered a logP of 2.4.
The value for `CNc1cccc(NC(=O)Cc2ccccc2)c1` was 2.31; that for `CCOc1cccc(NC(=O)Cc2ccccc2)c1` was 3.23.
The value for `Cc1cccc(NC(=O)Cc2ccccc2)c1` was 3.14; that for `COc1cccc(NC(=O)Cc2ccccc2)c1` was 2.86.
